Measurements taken from ChEMBL document CHEMBL1201862, “PubChem BioAssay data set” (2004).
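96-well plates; 48 h exposure; 5 concentrations. Endpoints by linear interpolation between flanking doses. Not reached: highest tested concentration assigned. The concentration for 50% growth inhibition is given as GI50.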 Calls of active or inactive are those of the source. No stated cut-off is given here; in the data, active = GI50 up to about 1.1 µM and inactive = higher.

How the values were obtained:
Experiment in all cases: NCI-60 cell line screen, 48 h
[1] = test system: SF-268
[2] = test system: HOP-62
[3] = test system: MCF7
[4] = test system: Hs-578T
[5] = test system: SK-MEL-2
[6] = test system: NCI/ADR-RES
[7] = test system: K562
[8] = test system: KM12
[9] = test system: HCT-15
[10] = test system: SK-MEL-28
[11] = test system: HCC 2998
[12] = test system: OVCAR-8
[13] = test system: SNB-19
[14] = test system: UACC-62
[15] = test system: A549
[16] = test system: UO-31
[17] = test system: MOLT-4
[18] = test system: RPMI-8226
[19] = test system: 786-0
[20] = test system: PC-3
[21] = test system: RXF 393
[22] = test system: SK-OV-3
[23] = test system: Malme-3M
[24] = test system: ACHN
[25] = test system: MDA-N
[26] = test system: A498
[27] = test system: HCT-116
[28] = test system: BT-549
[29] = test system: IGROV-1
[30] = test system: CAKI-1
[31] = test system: HT-29
[32] = test system: NCI-H460
[33] = test system: TK-10
[34] = test system: CCRF-CEM
[35] = test system: U-251
[36] = test system: SW-620
[37] = test system: NCI-H23
[38] = test system: SN12C
[39] = test system: OVCAR-4
[40] = test system: SF-295
[41] = test system: M14
[42] = test system: NCI-H226
[43] = test system: LOX IMVI
[44] = test system: MDA-MB-435
[45] = test system: OVCAR-3
[46] = test system: OVCAR-5
[47] = test system: SF-539
[48] = test system: EKVX
[49] = test system: HOP-92
[50] = test system: UACC-257
[51] = test system: T47D
[52] = test system: SK-MEL-5
[53] = test system: HL-60
[54] = test system: SNB-75
[55] = test system: NCI-H522
[56] = test system: SR
[57] = test system: MDA-MB-231
[58] = test system: DU-145
[59] = test system: COLO 205

Measured: GI50

NNc1nc2ccccc2c(=O)n1NC(=O)C(=O)Nc1cccc(C(F)(F)F)c1
> 100 µM: [9]
inactive: [1] > 100 µM | [2] > 100 µM | [3] > 100 µM | [4] > 100 µM | [5] > 100 µM | [6] > 100 µM | [7] > 100 µM | [8] > 100 µM | [10] > 100 µM | [11] > 100 µM | [12] > 100 µM | [13] > 100 µM | [14] > 100 µM | [15] > 100 µM | [16] > 100 µM | [17] > 100 µM | [18] > 100 µM | [19] > 100 µM | [20] > 100 µM | [21] > 100 µM | [22] > 100 µM | [23] > 100 µM | [24] > 100 µM | [25] > 100 µM | [26] > 100 µM | [27] > 100 µM | [28] > 100 µM | [29] 47.6 µM | [30] > 100 µM | [31] > 100 µM | [32] > 100 µM | [33] > 100 µM | [34] > 100 µM | [35] > 100 µM | [36] > 100 µM | [37] > 100 µM | [38] > 100 µM | [39] > 100 µM | [40] > 100 µM | [41] > 100 µM | [42] > 100 µM | [43] > 100 µM | [44] > 100 µM | [45] > 100 µM | [46] > 100 µM | [47] > 100 µM | [48] > 100 µM | [49] > 100 µM | [50] > 100 µM | [51] > 100 µM | [52] > 100 µM | [53] > 100 µM | [54] > 100 µM | [55] > 100 µM | [56] > 10 µM | [57] > 100 µM

COc1cc(/C=C2/C[C@H]3[C@@H]4CC=C5C[C@@H](O)CC[C@]5(C)[C@H]4CC[C@]3(C)NC2=O)cc(OC)c1OC
inactive: [1] 9.12 µM | [2] 23.1 µM | [3] 11.8 µM | [5] 22 µM | [6] 15.8 µM | [7] 40.3 µM | [8] 30.9 µM | [10] 29.2 µM | [11] 10.9 µM | [12] 18.9 µM | [13] 20.1 µM | [14] 16.3 µM | [15] 15 µM | [16] 9.68 µM | [17] 21.6 µM | [18] 5.46 µM | [19] 17.7 µM | [20] 18.7 µM | [21] 16 µM | [22] 31.6 µM | [23] 13.3 µM | [24] 18.9 µM | [25] 23 µM | [26] 5.24 µM | [27] 22.1 µM | [28] 15.2 µM | [29] 11.8 µM | [30] 11.9 µM | [31] 24 µM | [32] 11.8 µM | [33] 23.6 µM | [34] 47.8 µM | [35] 22.5 µM | [36] > 73.8 µM | [37] 22.1 µM | [38] 7.36 µM | [39] 15.1 µM | [40] 19.6 µM | [41] 30.5 µM | [42] 22 µM | [43] 20 µM | [44] 20.7 µM | [45] 28.7 µM | [46] 29.6 µM | [47] 30.7 µM | [48] 15.1 µM | [49] 3.69 µM | [58] 2.28 µM | [50] 27.5 µM | [51] 24.2 µM | [52] 6.7 µM | [55] 5.33 µM | [56] 39.8 µM | [59] > 38.9 µM | [57] 20.1 µM
16.3 µM: [9]
active: [53] 0.405 µM

CC1=CC(=O)C(=CN2C(=O)/C(=C\c3cccnc3)NC2=S)C(=O)O1
inactive: [2] > 100 µM | [3] > 100 µM | [5] > 100 µM | [6] > 100 µM | [8] > 100 µM | [10] > 100 µM | [11] > 100 µM | [12] > 100 µM | [13] > 100 µM | [15] > 100 µM | [16] > 100 µM | [17] > 100 µM | [19] > 100 µM | [20] > 100 µM | [22] > 100 µM | [24] > 100 µM | [25] > 100 µM | [27] > 100 µM | [28] > 100 µM | [29] > 100 µM | [30] > 100 µM | [31] > 100 µM | [32] > 100 µM | [33] > 100 µM | [35] > 100 µM | [36] > 100 µM | [37] > 100 µM | [38] > 100 µM | [39] > 100 µM | [40] > 100 µM | [41] > 100 µM | [42] > 100 µM | [43] > 100 µM | [44] > 100 µM | [45] > 100 µM | [46] > 100 µM | [47] > 100 µM | [48] > 100 µM | [49] > 100 µM | [58] > 100 µM | [50] > 100 µM | [51] > 100 µM | [52] > 100 µM | [53] 54.3 µM | [54] > 100 µM | [59] > 100 µM | [57] > 100 µM
> 100 µM: [9]

COc1cc(/C=N/n2c(Cc3ccc(Cl)cc3)n[nH]c2=O)cc(OC)c1OC
inactive: [1] 46.3 µM | [2] 37.6 µM | [3] > 100 µM | [4] 1.32 µM | [5] > 100 µM | [6] > 100 µM | [7] > 100 µM | [8] 50 µM | [10] > 100 µM | [11] 37.7 µM | [12] 26.5 µM | [13] > 100 µM | [14] > 100 µM | [15] > 100 µM | [16] > 100 µM | [17] > 100 µM | [19] > 100 µM | [20] > 100 µM | [21] > 100 µM | [22] > 100 µM | [23] > 100 µM | [24] > 100 µM | [25] > 100 µM | [26] > 100 µM | [27] > 100 µM | [28] > 100 µM | [30] > 100 µM | [31] > 100 µM | [32] 33.5 µM | [34] > 100 µM | [35] > 100 µM | [36] > 100 µM | [37] > 100 µM | [38] > 100 µM | [39] > 100 µM | [40] > 100 µM | [41] > 100 µM | [42] > 100 µM | [44] > 100 µM | [45] 85.9 µM | [46] > 100 µM | [47] 44.8 µM | [48] > 100 µM | [50] 37.5 µM | [51] > 100 µM | [54] 65.2 µM | [59] > 100 µM | [57] > 100 µM
> 100 µM: [9]

CC(=O)c1cc2ccccc2oc1=O [3-ACETYLCOUMARIN]
inactive: [1] > 100 µM | [2] > 100 µM | [3] 36.2 µM | [4] > 100 µM | [5] > 100 µM | [6] > 100 µM | [7] > 100 µM | [8] > 100 µM | [10] > 100 µM | [11] > 100 µM | [12] > 100 µM | [13] > 100 µM | [15] > 100 µM | [16] 92.3 µM | [17] > 100 µM | [18] > 100 µM | [19] > 100 µM | [20] > 100 µM | [21] > 100 µM | [23] > 100 µM | [24] > 100 µM | [25] > 100 µM | [26] > 100 µM | [27] > 100 µM | [28] > 100 µM | [29] > 100 µM | [30] > 100 µM | [31] > 100 µM | [32] > 100 µM | [33] > 100 µM | [34] > 100 µM | [35] > 100 µM | [36] > 100 µM | [37] > 100 µM | [38] > 100 µM | [39] > 100 µM | [40] > 100 µM | [41] > 100 µM | [42] > 100 µM | [43] > 100 µM | [44] > 100 µM | [45] > 100 µM | [46] > 100 µM | [47] > 100 µM | [48] > 100 µM | [49] 48.8 µM | [58] > 100 µM | [50] > 100 µM | [52] > 100 µM | [53] > 100 µM | [54] > 100 µM | [55] > 100 µM | [56] > 100 µM | [59] > 100 µM | [57] > 100 µM
> 100 µM: [9]
